The values below are quoted from earlier work in patent US6921495B2, “Environmentally compatible defrosting and antifreeze agents for aeroplanes” (Clariant GmbH, priority 2001, dated 2005).

Read-outs that look alike come from different tables or passages of the source.

Take `c1ccc2[nH]nnc2c1` [benzotriazole]: in the data set on Brachydanio rerio (Brachydanio rerio), the “LCO in Brachydanio rerio” value was 100 mg/L. Further, in the data set on rat (in vivo, po), the LD50 oral rat is reported as 560 mg/kg.
As for Tolyltriazole, the “LCO in Brachydanio rerio” value with Brachydanio rerio (in vivo) is 42.2 mg/L. In the data set with rat (oral), the LD50 oral rat is recorded as 675 mg/kg.
